According to patent publication US6787318B1, “Assay for evaluating the therapeutic effectiveness of agents in reducing Alzheimer's disease pathology” (Roskamp Research Institute, LLC, priority 1999, dated 2004):

Columns and labels:
[1] = tested on: primary cultured cortical neurons; assay: Primary cultured microglia-mediated neuronal cell injury (micrographs, 51Cr release, LDH release); type: cell-based, mice; settings: primary cultured microglia with cortical neurons
Excerpt: CD45 positive cells (brown) are microglia, while neurofilament L-staining cells (red) are neurons. […] Results shown are from one of three independent experiments with similar results; FIG. 2E is a graph showing primary cultured microglia-mediated neuronal cell injury as evidenced by ^51Cr release. Data are reported as mean ^51Cr release values±1 SEM and n=9 for each condition presented. […] N=9 for each condition presented.
Having shown that Aβ peptides activate microglia through the CD40 pathway, it was then investigated whether activation of Aβ-pretreated microglia by ligation of CD40 could mediate neuronal cell injury (23,24).

CD40 = CD40 cell-surface expression on HAEC, flow cytometry; type: cell-based, human; settings: Aβ 500 nM, IFN-γ 10 U/mL; vs control peptide or Aβ-free
Protocol: Cultured HAEC were treated as described above. […] Cells were analyzed on a FACScan flow cytometer (Becton-Dickinson, Mountain View, Calif.) using LYSIS-II software. CD40-expressing cells are defined as percentage of CD40-staining cells minus the percentage of IgG1-staining cells.
CD40 expression between control peptide-treated and Aβ-free AEC was relatively similar.

IL-1β [2] = assay: IL-1β secretion from HAEC, ELISA; type: cell-based, human; settings: 24 hours
Protocol: The assay for either IL-1β or IFN-γ was performed in strict accordance with the manufacturer's instructions for the respective assay kits.
The resulting cell culture media were assayed for IL-1β or IFN-γ using ELISA. […] The lowest effective concentration was determined to be 100 nM for IFN-γ ([…]). The lowest effective concentration was determined to be 100 nM for IFN-γ (p<0.01) and 1 μM for IL-1β (p<0.01).

IFN-γR = IFN-γR expression in HAEC, cell-ELISA (CELISA) and Western blotting; type: cell-based, human
Protocol: In vitro measurement of Aβ-induced changes in expression of the inflammatory cell-surface molecules CD40 and […] in cultured HAEC and HASM cells was performed using a slightly modified ABC-based cell-ELISA (CELISA). […] After PBS washes, 4% neutral formalin solution (Sigma) was used for fixation of the cells. Following quenching of the endogenous peroxidase activity with 3% H2O2 and routine blocking of non-specific binding, the biotinylated specific secondary antibodies against the primary antibodies (goat anti-mouse or anti-rabbit IgG) were applied. The combination of EXTRAVIDIN® Proxidase and the subsequent color reaction was performed strictly according to the manufacturer's instructions in the EXTRAVIDIN® Peroxidase Staining Kit (Sigma). The absorbance of 405 nm was then measured using a microplate reader (SPECTRAmax 250, Molecular Devices). The optical density (O.D.) value for the wells in the absence of the primary antibody for each group was considered as background and subtracted as the blank. In addition, stimulation with IFN-γ for CD40 was included as a positive control in the appropriate plate. Since CD45 is not expressed by endothelial or smooth muscle cells, the assays for expression of CD45 in these Aβ-treated cells were used as negative controls throughout the experiment. In addition, to evaluate the degree of cell death or proliferation in the Aβ-treated, cells, parallel experiments were performed using the MTS (3-(4,5-dimethylthiazol-2-yl)-5-(3-carboxymethoxyphenyl)-2-(4-sulfophenyl)-2H-tetrazolium) cell-proliferation kit (Promega).
Activation of CD40 signalling can be achieved by stimulation with either CD40L or certain anti-CD40 mAbs. Since synthetic CD40L is not commercially available, one of the anti-CD40 mAbs (clone 3/23), which has been reported to activate CD40 signalling, was used to mimic the effect of interaction of CD40-CD40L. All Aβ-treated cells were incubated with 1 μg/ml anti-CD40 mAb […]) for four hours followed by CELISA.
The total protein was estimated using the Bio-Rad protein assay. An aliquot corresponding to 100 μg of total protein of each sample was separated by SDS/PAGE (polyacrylamide gel electrophoresis) and transferred electrophoretically to PVDF filters. Non-specific binding of antibody was blocked with 5% non-fat dry milk, in 20 mM Tris/HCl, pH 7.5/150 mM NaCl/0.1% Triton X-100. Immunoblotting was carried out with the appropriate antibody followed by alkaline phosphatase-conjugated secondary anti-immunoglobulin antibodies. These were then developed by the chemiluminescence method (Bio-Rad).

IL-1β [3] = assay: Human IL-1β release ELISA, HAEC with or without CD40 ligation; type: cell-based
Protocol: To examine if endothelial CD40 would be functional, cultured HAEC were plated at 5×10^4 cells/well in 6-well tissue culture plates (Nunc-Immuno™ Plate, Denmark) and incubated at 37° C. with human CD40L recombinant protein (CD40L, 0.5 ug/mL, kindly provided by Dr. Jean-Yves Bonnefoy, Glaxo Institute for Molecular Biology, Geneva) in fresh cultured media for eight hours, and cell-free supernatants were collected for IL-1β release assay. The assay for human IL-1β was performed in strict accordance with the manufacturer's instruction using the human Predicta™ IL-1β Kit (Genzyme). Absorbance at 450 nm was measured using a microplate spectrophotometer (SPECTRAmax 250, Molecular Devices, Sunnyvale, Calif.).
A second group of cells was subjected to these same treatments and incubated with CD40L ([…]) for eight hours following the initial 48 hour treatment period. IL-1β release was then quantified using a human IL-1β ELISA kit as described in materials and methods.

Aβ1-42: amyloid β peptide 1-42, freshly solubilized
neuronal degeneration / injury in micrographs [1]: not detectable
CD40 cell-surface expression, flow cytometry (CD40): significantly induce CD40 expression
lowest effective concentration for IL-1β secretion (IL-1β [2]): 1 µM
IL-1β secretion, dose dependence (IL-1β [2]; increasing concentrations): increases the secretion of IL-1β and IFN-γ in a dose-dependent manner
Aβ-induced IFN-γR expression in HAEC on CD40 ligation (IFN-γR; 1 μg/ml mAb (3/23), four hours): significant effect
IFN-γR expression in HAEC (IFN-γR; 48 hours): preferentially activates endothelial cells rather than smooth muscle cells
IL-1β release following CD40 ligation (IL-1β [3]; 48 hour pre-treatment, then CD40L for eight hours): synergistic effect
IL-1β release in the absence of CD40L stimulation (IL-1β [3]; Aβ 500 nM, IFN-γ 10 U/mL, 48 hours): not sufficient to elicit IL-1β
